Results as given in patent US9017713B2, “Magnetic carrier and medical preparation for controllable delivery and release of active substances, methods of their production and methods of treatment using thereof” (priority 2006, dated 2015).

Tests used:
[1] = F 127 ferrofluid gel, constant magnetic field; cited from earlier work
[2] = Desorption of pharmaceutical from heat-sensitive polymer film on magnetic carrier by cooling below LCST; format: physicochemical; settings: Fe0.49Rh0.51 plates with graphite layer, film of copolymer NIPAAm with 35 mol % tBuAM; cooled below LCST to 15.9° C.
Description: The method may be realized, for example, as follows: quenched magnetic material Fe0.49Rh0.51 covered with a heat-sensitive polymer together with a pharmaceutical (for example, anti-inflammatory) in the form of particles in of about 150-200 nm is administered inside of an organism through a catheter and delivery of the aforementioned particles is performed to a target organ or a tissue. Magnetic field of 2 T is applied on the area, where the particles are concentrated. The magnetic material is cooled by 13° C., which results in refrigerating of a heat-sensitive polymer, for example (co)polymer N-iso-propyl acrylamide, down to temperature below LCST, in this case down to 24° C., and desorption of the pharmaceutical from the surface of heat-sensitive polymer takes place.
A procedure analogous to that described in Example 4, but administration of a pharmaceutical Adriablastin in an organism is made, when the magnetic carrier represents alloy of iron-rhodium Fe0.49Rh0.51, which surface is covered with copolymer NIPAAm with 35 mol % of tBuAM film, with alloy surface preliminary covered with a thin protective graphite layer (preventing oxidation); the magnetic material is prepared in the form of plates. […]

With vitamin B12 as the compound, how does the “Increase of release after application of magnetic field to the gel” value [1] read?
The value was 20%.

For `COc1cccc2c1C(=O)c1c(O)c3c(c(O)c1C2=O)C[C@@](O)(C(=O)CO)C[C@@H]3O[C@H]1C[C@H](N)[C@H](O)[C@H](C)O1` [Adriablastin], which Time of desorption [2] is on record?
The Time of desorption was 30 ± 5 min.
